# Paper PMC4459640 (European journal of pharmaceutical sciences : official …, 2014)
# How the values were obtained:
# [1] = biological target: human SULT1A2 (Homo sapiens, UniProt P50226); conditions: pH 7.5
# [2] = biological target: human SULT1A1 (Homo sapiens, UniProt P50225); conditions: pH 7.5
# [3] = system: HepG2 human hepatoma cells
# [4] = system: UGT2B7; conditions: cited from earlier work
# [5] = system: opioid receptors; conditions: ref Brown et al., 1985, Frölich et al., 2011, Zuckerman et al., 1999; cited from earlier work
# [6] = system: opioid receptors; conditions: ref Brown et al., 1985, Frölich et al., 2011, Zuckerman et al., 1999; cited from earlier work; remark: listed apart in the source
# [7] = human, rabbit, and rat; ref Frölich et al., 2011, Smith et al., 1973, Skarke and Lötsch, 2002; cited from earlier work
# [8] = ref Brown et al., 1985, Frölich et al., 2011, Zuckerman et al., 1999; cited from earlier work
# [9] = morphine metabolites in human; ref Frölich et al., 2011, Skarke and Lötsch, 2002; cited from earlier work
# [10] = substrate: CN1CC[C@]23CCCC[C@H]2[C@H]1Cc1ccc(O)cc13; type: in vitro ADME, human; conditions: other: Michaelis-Menten, pH 7.5
# [11] = substrate: Oc1ccc2c(c1)[C@@]13CCCC[C@@]1(O)[C@@H](C2)N(CC1CCC1)CC3; test: not read; conditions: other: Michaelis-Menten, pH 7.5
# human SULT1A1, sequence (P50225 whole entry): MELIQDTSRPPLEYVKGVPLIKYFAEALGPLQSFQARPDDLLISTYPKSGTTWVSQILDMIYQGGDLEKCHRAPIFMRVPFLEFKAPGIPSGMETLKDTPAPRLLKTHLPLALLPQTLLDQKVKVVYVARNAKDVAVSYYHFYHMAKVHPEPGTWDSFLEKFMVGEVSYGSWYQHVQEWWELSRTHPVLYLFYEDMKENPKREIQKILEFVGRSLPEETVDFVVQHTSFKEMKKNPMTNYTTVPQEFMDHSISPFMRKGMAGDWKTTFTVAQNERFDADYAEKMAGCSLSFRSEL
# human SULT1A2, sequence (P50226 whole entry): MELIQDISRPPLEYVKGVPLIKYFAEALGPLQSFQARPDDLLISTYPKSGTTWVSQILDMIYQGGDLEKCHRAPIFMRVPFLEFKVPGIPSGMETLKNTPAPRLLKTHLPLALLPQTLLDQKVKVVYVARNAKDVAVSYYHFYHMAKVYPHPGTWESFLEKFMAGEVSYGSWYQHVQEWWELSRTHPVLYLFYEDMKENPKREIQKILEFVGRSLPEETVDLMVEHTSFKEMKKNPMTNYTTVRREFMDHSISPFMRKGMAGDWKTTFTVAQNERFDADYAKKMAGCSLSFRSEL
molecule,measurement,setting,value
"Oc1ccc2c3c1O[C@H]1[C@H](O)CC[C@@]4(O)[C@@H](C2)N(CC2CC2)CC[C@]314 [6βNaltrexol, 6β-naltrexol]","Specific activity, SULT1A2",[1],0.08 ± 0.01 nmol/min/mg
same,"Specific activity, SULT1A1",[2],0.21 ± 0.03 nmol/min/mg
"Oc1ccc2c(c1)[C@@]13CCCC[C@@]1(O)[C@@H](C2)N(CC1CCC1)CC3 [Butorphanol, butorphanol]",Efficiency of sulfation by HepG2 cells relative to the other three opioid drugs,[3],more efficiently
"C=CCN1CC[C@]23c4c5ccc(O)c4O[C@H]2[C@@H](O)C=C[C@H]3[C@H]1C5 [Nalorphine, nalorphine]",Efficiency of sulfation by HepG2 cells relative to the other three opioid drugs,[3],more efficiently
"CN1CC[C@]23c4c5ccc(O)c4O[C@H]2C(=O)CC[C@@]3(O)[C@H]1C5 [Oxymorphone, oxymorphone]",Km,[4],540 to 1360 µM
same,Efficiency of sulfation by HepG2 cells relative to the other three opioid drugs,[3],more efficiently
"CN1CC[C@]23c4c5ccc(OS(=O)(=O)O)c4O[C@H]2[C@@H](O)C=C[C@H]3[C@H]1C5 [morphine-3-sulfate, morphine-3-O-sulfate]",Affinity toward opioid receptors,[5],low affinity
same,Capability to activate the opioid receptors (ligand activity),[6],low capability to activate the receptors
same,Sulfate metabolite as share of the metabolites from urine,[7],~ 2%
CN1CC[C@]23c4c5ccc(O)c4O[C@H]2[C@@H](OS(=O)(=O)O)C=C[C@H]3[C@H]1C5 [morphine-6-sulfate],Analgesic effect compared with morphine,[8],greater analgesic effect than does morphine
same,Affinity toward opioid receptors,[5],comparable to those of morphine
same,Capability to activate the opioid receptors (ligand activity),[6],comparable to those of morphine
CN1CC[C@]23c4c5ccc(O)c4O[C@H]2[C@@H](O[C@@H]2O[C@H](C(=O)O)[C@@H](O)[C@H](O)[C@H]2O)C=C[C@H]3[C@H]1C5 [morphine-glucuronide],Share of metabolite,[9],60–70 % of metabolite
human SULT2A1 (Homo sapiens) (protein) MSDDFLWFEGIAFPTMGFRSETLRKVRDEFVIRDEDVIILTYPKSGTNWLAEILCLMHSKGDAKWIQSVPIWERSPWVESEIGYTALSETESPRLFSSHLPIQLFPKSFFSSKAKVIYLMRNPRDVLVSGYFFWKNMKFIKKPKSWEEYFEWFCQGTVLYGSWFDHIHGWMPMREEKNFLLLSYEELKQDTGRTIEKICQFLGKTLEPEELNLILKNSSFQSMKENKMSNYSLLSVDYVVDKAQLLRKGVSGDWKNHFTVAQAEDFDKLFQEKMADLPRELFPWE,Km,[10],599.0 ± 60.7 µM
same,Vmax,[10],0.00032 µmol/min/mg
same,Km,[11],38.95 ± 1.21 µM
same,Vmax,[11],0.00104 µmol/min/mg
